One data set concerns the target CYP3A4(BQ) (Homo sapiens (Human), UniProt P08684). Nature of the data set: CYP enzyme inhibition, fluorescent substrate BQ. The method in brief: (§1)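 First, 100 mM DMSO stocks are diluted into acetonitrile, then twofold through co-factor mix for 10 points. Next, mixtures are preincubated 10 min at 37 °C.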
In another data set the target is CYP3A4(BFC) (Homo sapiens (Human), UniProt P08684). Nature of the data set: CYP enzyme inhibition, fluorescent substrate BFC. In short, it runs like this: as §1
Another data set has as its target CYP2C19 (Homo sapiens (Human), UniProt P33261). As to the kind of experiment: CYP enzyme inhibition, fluorescent substrate (CEC). The method in brief:
as §1

The next data set addresses CYP2C9 (Homo sapiens (Human), UniProt P11712). As to the kind of experiment: CYP enzyme inhibition, fluorescent substrate (MFC). In short, it runs like this:
as §1

The next data set has as its target CYP2D6 (Homo sapiens (Human), UniProt P10635). As to the kind of experiment: CYP enzyme inhibition, fluorescent substrate (AMMC). The data set is classed as in vitro ADME. Particulars: read-out: Cyp IC50 2D6. The method in brief: (§2)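 IC50 derived from loss of fluorescent metabolite across a 10-point 1:1 dilution series. CYP2D6: 1.5 pmol enzyme, 1.5 μM AMMC, 30 min at 37 °C, 409/530 nm; CYP1A2: 0.5 pmol, 5 μM CEC, 15 min, 409/460 nm. Compounds pre-incubated 10 min in NADPH-regenerating mix.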

In a further data set the target is CYP1A2 (Homo sapiens (Human), UniProt P05177). Nature of the data set: CYP enzyme inhibition, fluorescent substrate (CEC). The method in brief:
as §2

The next data set concerns the target B-Raf V600E (Homo sapiens (Human), UniProt P15056, V600E). As to the kind of experiment: B-Raf V600E kinase activity biochemical assay (AlphaScreen, biotin-MEK1 phosphorylation). The settings on record: for IC50: B-Raf V600E; for Biochemical activity ratio V600E/C: ratio of IC50 B-Raf V600E / c-Raf-1. In short, it runs like this:
(§3)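 Compounds from a 0.1 mM DMSO stock were tested at 8 serially diluted points. Kinase reactions with 100 μM ATP (final) ran 45 min at room temperature, then were stopped with EDTA buffer containing anti-phospho-MEK1/2 antibody plus streptavidin donor and protein A acceptor beads.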

A further data set addresses c-Raf-1 (Homo sapiens, UniProt P04049). As to the kind of experiment: c-Raf-1 kinase activity biochemical assay (AlphaScreen, biotin-MEK1 phosphorylation). The method in brief: as §3
Data set [1] has as its target B-Raf (Homo sapiens (Human), UniProt P15056). Nature of the data set: B-Raf kinase activity biochemical assay (AlphaScreen, biotin-MEK1 phosphorylation). Particulars: B-Raf. In short, it runs like this:
as §3

Data set [2] relates to B-Raf. The data set is described as above. The settings on record: for Biochemical activity ratio B/V600E: ratio of IC50 B-Raf / B-Raf V600E; for Biochemical activity ratio B/C: ratio of IC50 B-Raf / c-Raf-1. In short, it runs like this:
as §3

Data set [3] is described as follows: Relative solubility by turbidity threshold concentration in aqueous buffers (pH 1.5, 4.5, 6.8, 7.4). In kind it is physicochemical. The settings on record: for turbidity threshold (L, M, H) 1.4: pH 1.4 [sic] (method: SGF pH 1.5); for turbidity threshold (L, M, H) 4.5: pH 4.5 (SIF); for turbidity threshold (L, M, H) 6.8: pH 6.8 (SIF); for turbidity threshold (L, M, H) 7.4: pH 7.4 (HEPES). In short, it runs like this:
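Solubility class (high >250 μM, moderate 31.3–250 μM, low <31.3 μM) comes from the concentration where absorbance reaches a 0.01 threshold, averaged across 490/535/650 nm. Samples were compound dilutions from DMSO stock, 1 μL into 99 μL buffer at pH 1.5, 4.5, 6.8 or 7.4.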

Setting [4] is: read-out: Cyp IC50 3A4(BQ), CYP3A4, substrate BQ.

Like-named read-outs stand apart in the source and are kept apart here.

Sequence of CYP2D6 (P10635 whole entry): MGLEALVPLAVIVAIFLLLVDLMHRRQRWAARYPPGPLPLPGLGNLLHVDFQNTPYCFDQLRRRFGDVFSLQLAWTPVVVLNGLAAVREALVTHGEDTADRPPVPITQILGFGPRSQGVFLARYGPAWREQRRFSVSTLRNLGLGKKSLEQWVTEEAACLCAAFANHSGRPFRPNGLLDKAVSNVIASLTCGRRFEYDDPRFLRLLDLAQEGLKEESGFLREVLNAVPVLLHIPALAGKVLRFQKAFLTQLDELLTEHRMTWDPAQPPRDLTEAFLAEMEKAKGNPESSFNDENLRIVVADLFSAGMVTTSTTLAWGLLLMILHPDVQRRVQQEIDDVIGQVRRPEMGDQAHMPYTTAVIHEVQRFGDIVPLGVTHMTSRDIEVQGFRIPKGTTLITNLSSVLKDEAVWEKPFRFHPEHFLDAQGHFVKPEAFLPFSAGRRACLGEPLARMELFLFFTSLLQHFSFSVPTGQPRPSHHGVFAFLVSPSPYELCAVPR
Sequence of CYP2C9 (P11712 whole entry): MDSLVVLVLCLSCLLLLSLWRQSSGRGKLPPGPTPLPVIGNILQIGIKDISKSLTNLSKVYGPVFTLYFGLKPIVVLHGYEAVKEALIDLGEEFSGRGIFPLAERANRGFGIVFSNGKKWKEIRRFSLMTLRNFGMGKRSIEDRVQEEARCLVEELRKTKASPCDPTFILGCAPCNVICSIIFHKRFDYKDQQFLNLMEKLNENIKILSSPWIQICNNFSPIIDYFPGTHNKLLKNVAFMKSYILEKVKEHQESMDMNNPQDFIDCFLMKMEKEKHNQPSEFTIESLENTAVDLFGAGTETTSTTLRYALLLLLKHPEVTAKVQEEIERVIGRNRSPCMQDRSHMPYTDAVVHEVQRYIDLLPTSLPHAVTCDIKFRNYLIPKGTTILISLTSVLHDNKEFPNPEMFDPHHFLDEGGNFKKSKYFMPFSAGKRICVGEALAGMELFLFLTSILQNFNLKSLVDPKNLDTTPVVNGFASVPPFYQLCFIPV
Sequence of CYP1A2 (P05177 whole entry): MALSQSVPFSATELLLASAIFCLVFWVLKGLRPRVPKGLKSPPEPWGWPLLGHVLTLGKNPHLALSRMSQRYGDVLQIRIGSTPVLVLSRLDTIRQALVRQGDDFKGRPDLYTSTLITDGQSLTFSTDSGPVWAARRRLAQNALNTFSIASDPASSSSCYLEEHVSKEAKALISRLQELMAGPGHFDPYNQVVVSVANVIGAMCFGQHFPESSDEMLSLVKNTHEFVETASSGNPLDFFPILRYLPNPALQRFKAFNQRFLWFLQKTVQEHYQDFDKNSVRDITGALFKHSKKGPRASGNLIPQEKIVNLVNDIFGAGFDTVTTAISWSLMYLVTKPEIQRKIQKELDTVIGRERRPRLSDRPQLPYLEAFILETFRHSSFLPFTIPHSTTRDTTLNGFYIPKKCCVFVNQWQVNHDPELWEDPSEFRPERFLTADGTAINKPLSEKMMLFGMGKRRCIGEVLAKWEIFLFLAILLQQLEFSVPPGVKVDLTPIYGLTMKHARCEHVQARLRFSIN
Sequence of CYP2C19 (P33261 whole entry): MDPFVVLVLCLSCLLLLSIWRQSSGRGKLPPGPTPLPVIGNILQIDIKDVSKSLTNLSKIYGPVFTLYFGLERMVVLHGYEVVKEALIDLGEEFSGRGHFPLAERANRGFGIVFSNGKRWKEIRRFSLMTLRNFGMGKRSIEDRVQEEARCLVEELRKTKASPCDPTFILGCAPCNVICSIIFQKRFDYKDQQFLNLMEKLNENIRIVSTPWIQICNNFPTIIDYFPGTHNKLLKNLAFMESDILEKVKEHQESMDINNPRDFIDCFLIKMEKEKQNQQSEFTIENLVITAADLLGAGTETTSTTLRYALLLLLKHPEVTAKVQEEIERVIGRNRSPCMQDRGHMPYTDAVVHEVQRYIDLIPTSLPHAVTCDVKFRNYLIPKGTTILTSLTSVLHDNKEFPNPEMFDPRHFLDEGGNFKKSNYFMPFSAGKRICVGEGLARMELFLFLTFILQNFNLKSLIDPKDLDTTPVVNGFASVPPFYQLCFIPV
Sequence of CYP3A4(BFC) (P08684 whole entry): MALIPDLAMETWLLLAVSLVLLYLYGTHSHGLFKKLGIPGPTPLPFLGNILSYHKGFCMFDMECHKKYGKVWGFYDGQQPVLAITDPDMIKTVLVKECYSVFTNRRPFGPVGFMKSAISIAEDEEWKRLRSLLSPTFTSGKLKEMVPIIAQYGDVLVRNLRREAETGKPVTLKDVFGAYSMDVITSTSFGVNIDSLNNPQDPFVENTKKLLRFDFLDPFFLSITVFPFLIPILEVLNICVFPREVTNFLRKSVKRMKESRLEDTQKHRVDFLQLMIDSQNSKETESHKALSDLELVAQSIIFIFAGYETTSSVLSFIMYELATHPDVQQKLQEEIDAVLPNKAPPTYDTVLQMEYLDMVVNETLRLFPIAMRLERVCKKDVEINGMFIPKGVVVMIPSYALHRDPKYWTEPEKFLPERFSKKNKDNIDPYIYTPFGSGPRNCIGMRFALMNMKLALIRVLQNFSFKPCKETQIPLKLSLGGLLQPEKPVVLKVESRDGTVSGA
Sequence of CYP3A4(BQ) (P08684 whole entry): as above
Sequence of B-Raf V600E (P15056 whole entry V600E): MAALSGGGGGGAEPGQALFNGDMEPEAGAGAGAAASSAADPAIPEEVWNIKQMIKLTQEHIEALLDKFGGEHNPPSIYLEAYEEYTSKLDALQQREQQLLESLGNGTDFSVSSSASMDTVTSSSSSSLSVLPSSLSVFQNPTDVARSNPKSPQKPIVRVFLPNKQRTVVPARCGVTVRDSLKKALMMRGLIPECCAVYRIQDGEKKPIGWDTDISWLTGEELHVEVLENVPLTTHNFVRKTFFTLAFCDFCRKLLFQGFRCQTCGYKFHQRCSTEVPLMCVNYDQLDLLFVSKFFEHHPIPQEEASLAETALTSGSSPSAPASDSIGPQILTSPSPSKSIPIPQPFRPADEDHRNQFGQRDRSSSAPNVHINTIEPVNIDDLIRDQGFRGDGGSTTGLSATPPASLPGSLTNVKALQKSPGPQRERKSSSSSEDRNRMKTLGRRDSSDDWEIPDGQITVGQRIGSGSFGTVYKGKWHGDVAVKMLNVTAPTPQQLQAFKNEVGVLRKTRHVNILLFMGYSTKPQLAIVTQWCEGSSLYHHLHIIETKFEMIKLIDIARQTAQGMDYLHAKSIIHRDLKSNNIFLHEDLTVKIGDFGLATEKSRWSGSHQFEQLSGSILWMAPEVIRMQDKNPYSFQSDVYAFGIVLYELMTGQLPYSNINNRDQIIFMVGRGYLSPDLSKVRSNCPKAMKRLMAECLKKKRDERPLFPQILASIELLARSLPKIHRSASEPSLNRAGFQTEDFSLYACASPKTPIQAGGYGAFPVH
Sequence of B-Raf (Homo sapiens (Human), UniProt P15056) (P15056 whole entry): as the sequence (P15056 whole entry V600E) above, with E600V counted along it
Sequence of c-Raf-1 (P04049 whole entry, looked up): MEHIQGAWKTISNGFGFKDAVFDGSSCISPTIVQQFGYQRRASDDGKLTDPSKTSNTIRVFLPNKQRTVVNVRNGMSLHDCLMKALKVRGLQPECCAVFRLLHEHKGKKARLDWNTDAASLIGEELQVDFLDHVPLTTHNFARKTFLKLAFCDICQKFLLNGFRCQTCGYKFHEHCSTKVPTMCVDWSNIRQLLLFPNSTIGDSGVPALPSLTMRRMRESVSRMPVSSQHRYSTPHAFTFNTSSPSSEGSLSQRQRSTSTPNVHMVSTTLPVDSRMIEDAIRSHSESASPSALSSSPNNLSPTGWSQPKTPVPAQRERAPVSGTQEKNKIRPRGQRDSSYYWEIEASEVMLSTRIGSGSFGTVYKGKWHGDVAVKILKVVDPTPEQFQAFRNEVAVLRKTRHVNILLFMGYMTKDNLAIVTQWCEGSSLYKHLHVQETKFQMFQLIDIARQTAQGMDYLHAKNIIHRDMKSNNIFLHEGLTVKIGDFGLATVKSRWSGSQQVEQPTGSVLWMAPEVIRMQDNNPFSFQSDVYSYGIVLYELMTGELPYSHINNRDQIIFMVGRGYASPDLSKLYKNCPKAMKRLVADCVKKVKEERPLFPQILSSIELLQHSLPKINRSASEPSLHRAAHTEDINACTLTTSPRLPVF

In the case of `CCCS(=O)(=O)Nc1ccc(F)c(C(=O)c2c[nH]c3ncc(OC)c(Cl)c23)c1F` [P-2002, Propane-1-sulfonic acid [3-(4-chloro-5-methoxy-1H-pyrrolo[2,3-b]pyridine-3-carbonyl)-2,4-difluoro-phenyl]-amide], the IC50 is 5 to 10 µM at CYP3A4(BQ); 5 to 10 µM against CYP3A4(BFC); < 5 µM on CYP2C19; < 5 µM at CYP2C9; > 10 µM on CYP2D6; > 10 µM against CYP1A2. Besides, the IC50 against B-Raf V600E, against c-Raf-1 and on B-Raf [1] was < 0.1 µM each time. In addition, the “Biochemical activity ratio V600E/C” value at B-Raf V600E is given as 0.1-10. Besides, the “Biochemical activity ratio B/V600E” value in the data set on B-Raf [2] is on record as 0.1-10. Also, the “Biochemical activity ratio B/C” value in the data set with B-Raf [2] is recorded as 0.1-10. For the same compound, the “turbidity threshold (L, M, H) 1.4” value in [3] is reported as “M (moderate solubility if the threshold concentration is 31.3 μM to 250 μM)”. For the same compound, the “turbidity threshold (L, M, H) 4.5” value in data set [3] is listed as “M (moderate solubility if the threshold concentration is 31.3 μM to 250 μM)”. The “turbidity threshold (L, M, H) 6.8” value in [3] is “M (moderate solubility if the threshold concentration is 31.3 μM to 250 μM)”. Moreover, the “turbidity threshold (L, M, H) 7.4” value in data set [3] was “M (moderate solubility if the threshold concentration is 31.3 μM to 250 μM)”.

As to `N#Cc1c(Cl)cnc2[nH]cc(C(=O)c3c(F)ccc(NS(=O)(=O)c4ccc(C(F)(F)F)cc4)c3F)c12` [P-2010, N-[3-(5-Chloro-4-cyano-1H-pyrrolo[2,3-b]pyridine-3-carbonyl)-2,4-difluoro-phenyl]-4-trifluoromethyl-benzenesulfonamide], the 50% inhibitory concentration (IC50) at CYP3A4(BQ) is > 10 µM; against CYP3A4(BFC), > 10 µM; at CYP2C19, > 10 µM; against CYP2C9, 5 to 10 µM; at CYP2D6, < 5 µM; at CYP1A2, > 10 µM. Moreover, the IC50 against B-Raf V600E, at c-Raf-1 and at B-Raf [1] was < 0.1 µM in each case. Also, the “Biochemical activity ratio V600E/C” value on B-Raf V600E is >10. Also, the “Biochemical activity ratio B/V600E” value in the data set with B-Raf [2] is reported as 0.1-10. Also, the “Biochemical activity ratio B/C” value with B-Raf [2] is reported as >10. Moreover, the “turbidity threshold (L, M, H) 1.4” value in data set [3] is “L (low solubility if the threshold concentration is <31.3 μM)”. In addition, the “turbidity threshold (L, M, H) 4.5” value in data set [3] is on record as “L (low solubility if the threshold concentration is <31.3 μM)”. Also, the “turbidity threshold (L, M, H) 6.8” value in [3] was “L (low solubility if the threshold concentration is <31.3 μM)”. For the same compound, the “turbidity threshold (L, M, H) 7.4” value in [3] was “M (moderate solubility if the threshold concentration is 31.3 μM to 250 μM)”.

In the case of `CCCS(=O)(=O)Nc1ccc(F)c(C(=O)c2c[nH]c3ncc(Cl)c(C#N)c23)c1F` [P-2007, Propane-1-sulfonic acid [3-(5-chloro-4-cyano-1H-pyrrolo[2,3-b]pyridine-3-carbonyl)-2,4-difluoro-phenyl]-amide], the half-maximal inhibitory concentration (IC50) against CYP3A4(BQ) was > 10 µM; on CYP3A4(BFC), > 10 µM; against CYP2C19 it was > 10 µM; against CYP2C9 it was < 5 µM; at CYP2D6, > 10 µM; on CYP1A2, > 10 µM. For the same compound, the IC50 at B-Raf V600E, against c-Raf-1 and against B-Raf [1] was < 0.1 µM in each case. Moreover, the “Biochemical activity ratio V600E/C” value at B-Raf V600E is on record as 0.1-10. The “Biochemical activity ratio B/V600E” value in the data set with B-Raf [2] is listed as 0.1-10. Besides, the “Biochemical activity ratio B/C” value in the data set with B-Raf [2] was 0.1-10. The “turbidity threshold (L, M, H) 1.4” value in [3] is reported as “M (moderate solubility if the threshold concentration is 31.3 μM to 250 μM)”. Besides, in data set [3], the “turbidity threshold (L, M, H) 4.5” value is given as “M (moderate solubility if the threshold concentration is 31.3 μM to 250 μM)”. The “turbidity threshold (L, M, H) 6.8” value in data set [3] was “M (moderate solubility if the threshold concentration is 31.3 μM to 250 μM)”. In data set [3], the “turbidity threshold (L, M, H) 7.4” value is “M (moderate solubility if the threshold concentration is 31.3 μM to 250 μM)”.

As to `CCn1cc(Nc2ncnc3[nH]cc(C(=O)c4c(F)ccc(NS(=O)(=O)c5ccc(C(F)(F)F)cc5)c4F)c23)cn1` [P-1063, N-{3-[4-(1-Ethyl-1H-pyrazol-4-ylamino)-7H-pyrrolo[2,3-d]pyrimidine-5-carbonyl]-2,4-difluoro-phenyl}-4-trifluoromethyl-benzenesulfonamide], the half-maximal inhibitory concentration (IC50) on CYP3A4(BQ) (setting [4]) is < 5 µM; against CYP3A4(BFC), 5 to 10 µM; on CYP2C19, 5 to 10 µM; against CYP2C9, 5 to 10 µM; on CYP2D6 it was > 10 µM; against CYP1A2 (human, 15 min), > 10 µM. For the same compound, the IC50 against B-Raf V600E was > 0.1 µM; at c-Raf-1, < 0.1 µM; against B-Raf [1], < 0.1 µM. The “Biochemical activity ratio V600E/C” value on B-Raf V600E is reported as >10. The “Biochemical activity ratio B/V600E” value in the data set with B-Raf [2] is 0.1-10. Further, in the data set with B-Raf [2], the “Biochemical activity ratio B/C” value was >10. In addition, the “turbidity threshold (L, M, H) 1.4” value in data set [3] is recorded as “L (low solubility if the threshold concentration is <31.3 μM)”. The “turbidity threshold (L, M, H) 4.5” value in data set [3] was “L (low solubility if the threshold concentration is <31.3 μM)”. The “turbidity threshold (L, M, H) 6.8” value in data set [3] is on record as “L (low solubility if the threshold concentration is <31.3 μM)”. In data set [3], the “turbidity threshold (L, M, H) 7.4” value was “L (low solubility if the threshold concentration is <31.3 μM)”.

Regarding `CCCc1ccc(S(=O)(=O)Nc2ccc(F)c(C(=O)c3c[nH]c4ncnc(NC5CCOCC5)c34)c2F)cc1` [P-1046, N-{2,4-Difluoro-3-[4-(tetrahydro-pyran-4-ylamino)-7H-pyrrolo[2,3-d]pyrimidine-5-carbonyl]-phenyl}-4-propyl-benzenesulfonamide], the IC50 was > 10 µM at CYP3A4(BQ) (setting [4]); > 10 µM at CYP3A4(BFC) (read-out: Cyp IC50 3A4(BFC), CYP3A4, substrate BFC); > 10 µM at CYP2C19 (read-out: Cyp IC50 2C19, CYP2C19, substrate CEC); > 10 µM at CYP2C9 (read-out: Cyp IC50 2C9, CYP2C9, substrate MFC); > 10 µM on CYP2D6; > 10 µM against CYP1A2 (human, 15 min). The half-maximal inhibitory concentration (IC50) against B-Raf V600E was > 0.1 µM; against c-Raf-1, < 0.1 µM; at B-Raf [1] it was < 0.1 µM. Further, the “Biochemical activity ratio V600E/C” value on B-Raf V600E is >10. Besides, in the data set with B-Raf [2], the “Biochemical activity ratio B/V600E” value was 0.1-10. Also, in the data set on B-Raf [2], the “Biochemical activity ratio B/C” value is recorded as >10. For the same compound, the “turbidity threshold (L, M, H) 1.4” value in data set [3] is “M (moderate solubility if the threshold concentration is 31.3 μM to 250 μM)”. In addition, the “turbidity threshold (L, M, H) 4.5” value in data set [3] is listed as “L (low solubility if the threshold concentration is <31.3 μM)”. Besides, the “turbidity threshold (L, M, H) 6.8” value in data set [3] is “L (low solubility if the threshold concentration is <31.3 μM)”. Further, the “turbidity threshold (L, M, H) 7.4” value in [3] is “L (low solubility if the threshold concentration is <31.3 μM)”.

On to `CCCS(=O)(=O)Nc1ccc(F)c(C(=O)c2c[nH]c3ncc(Cl)c(C)c23)c1F` [P-2008, Propane-1-sulfonic acid [3-(5-chloro-4-methyl-1H-pyrrolo[2,3-b]pyridine-3-carbonyl)-2,4-difluoro-phenyl]-amide], for which the half-inhibitory concentration (IC50) is > 10 µM against CYP3A4(BQ); > 10 µM on CYP3A4(BFC); 5 to 10 µM against CYP2C19; 5 to 10 µM at CYP2C9; > 10 µM at CYP2D6; > 10 µM at CYP1A2. Moreover, the half-inhibitory concentration (IC50) against B-Raf V600E, at c-Raf-1 and against B-Raf [1] was < 0.1 µM each time. Moreover, the “Biochemical activity ratio V600E/C” value on B-Raf V600E is recorded as 0.1-10. The “Biochemical activity ratio B/V600E” value in the data set with B-Raf [2] is recorded as 0.1-10. The “Biochemical activity ratio B/C” value in the data set with B-Raf [2] is reported as 0.1-10. The “turbidity threshold (L, M, H) 1.4” value in [3] was “L (low solubility if the threshold concentration is <31.3 μM)”. Besides, the “turbidity threshold (L, M, H) 4.5” value in data set [3] is on record as “M (moderate solubility if the threshold concentration is 31.3 μM to 250 μM)”. Further, the “turbidity threshold (L, M, H) 6.8” value in data set [3] is recorded as “L (low solubility if the threshold concentration is <31.3 μM)”. In data set [3], the “turbidity threshold (L, M, H) 7.4” value is reported as “M (moderate solubility if the threshold concentration is 31.3 μM to 250 μM)”.

The record behind these values is patent US9617267B2, “Compounds and methods for kinase modulation, and indications therefor” (Plexxikon Inc., priority 2009, dated 2017).
